The supplement of paper PMC8920030

Columns and labels:
Settings in all cases: growth mode: biofilm, 24 h; exposure time: 24 h
colistin [1] = compound: T1, CCC(C)CCCC(=O)N[C@@H](CCN)C(=O)N[C@H](C(=O)N[C@@H](CCN)C(=O)N[C@H]1CCNC(=O)[C@H]([C@@H](C)O)NC(=O)[C@H](CCN)NC(=O)[C@H](CCN)NC(=O)[C@H](CC(C)C)NC(=O)[C@@H](CC(C)C)NC(=O)[C@H](CCN)NC1=O)[C@@H](C)O [colistin]; assay: minimum concentration eradicating biofilm below detection limit (MCK-E); higher = more biofilm tolerance
Method: (§1)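 Clinical P. aeruginosa isolates were grown as static biofilms for 24 h at 37 °C in LB in half-area 96-well plates, then exposed for 24 h to colistin at 1, 4, 16, 64, 256 or […]. Surviving CFU were counted by spotting serial dilutions. MCK is the lowest tested concentration giving the stated log reduction in CFU versus an untreated control; '>1024' means the reduction was not reached at the top dose, and 1 is the lowest dose tested (≤1).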

tobramycin [2] = compound: T2, NC[C@H]1O[C@H](O[C@H]2[C@H](O)[C@@H](O[C@H]3O[C@H](CO)[C@@H](O)[C@H](N)[C@H]3O)[C@H](N)C[C@@H]2N)[C@H](N)C[C@@H]1O [tobramycin]; assay: minimum concentration of killing, 4-log CFU reduction of biofilm (MCK99.99); higher = more biofilm tolerance
Method: as §1, with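 “tobramycin” for “colistin”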

tobramycin [3] = compound: T2, tobramycin; assay: minimum concentration of killing, 1-log CFU reduction of biofilm (MCK90); higher = more biofilm tolerance
Method: as §1, with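 “tobramycin” for “colistin”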

colistin [4] = compound: T1, colistin; assay: minimum concentration of killing, 2-log CFU reduction of biofilm (MCK99); higher = more biofilm tolerance
Method: as §1

colistin [5] = compound: T1, colistin; assay: minimum concentration of killing, 4-log CFU reduction of biofilm (MCK99.99); higher = more biofilm tolerance
Method: as §1

tobramycin [6] = compound: T2, tobramycin; assay: minimum concentration of killing, 2-log CFU reduction of biofilm (MCK99); higher = more biofilm tolerance
Method: as §1, with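 “tobramycin” for “colistin”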

colistin [7] = compound: T1, colistin; assay: minimum concentration of killing, 1-log CFU reduction of biofilm (MCK90); higher = more biofilm tolerance
Method: as §1

tobramycin [8] = compound: T2, tobramycin; assay: minimum concentration eradicating biofilm below detection limit (MCK-E); higher = more biofilm tolerance
Method: as §1, with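 “tobramycin” for “colistin”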

Row | Test System | minimum concentration eradicating biofilm below detection limit (colistin [1]) [µg/mL] | minimum concentration of killing (tobramycin [2]) [µg/mL] | minimum concentration of killing (tobramycin [3]) [µg/mL] | minimum concentration of killing (colistin [4]) [µg/mL] | minimum concentration of killing (colistin [5]) [µg/mL] | minimum concentration of killing (tobramycin [6]) [µg/mL] | minimum concentration of killing (colistin [7]) [µg/mL] | minimum concentration eradicating biofilm below detection limit (tobramycin [8]) [µg/mL]
1 | Pseudomonas aeruginosa clinical isolate ESP081 | 256 | 64 | 4 | 256 | 256 | 16 | 256 | 64
2 | Pseudomonas aeruginosa clinical isolate ESP083 | 256 | > 1020 | > 1020 | 64 | 256 | > 1020 | 4 | > 1020
3 | Pseudomonas aeruginosa clinical isolate ESP088 | 256 | > 1020 | 256 | 64 | 256 | 1020 | 64 | > 1020
4 | Pseudomonas aeruginosa clinical isolate ESP091 | 256 | 1020 | 64 | 256 | 256 | 64 | 256 | 1020
5 | Pseudomonas aeruginosa clinical isolate ESP093 | 256 | > 1020 | 4 | 64 | 256 | 1020 | 16 | > 1020
6 | Pseudomonas aeruginosa clinical isolate F1688 | 256 | 256 | 4 | 256 | 256 | 4 | 16 | 256
7 | Pseudomonas aeruginosa clinical isolate F1706 | 256 | 16 | 4 | 256 | 256 | 16 | 256 | 256
8 | Pseudomonas aeruginosa clinical isolate F1720 | 256 | 1020 | 4 | 64 | 256 | 64 | ≤ 1 | > 1020
9 | Pseudomonas aeruginosa clinical isolate F1727 | 256 | 1020 | 4 | 256 | 256 | 4 | 256 | 1020
10 | Pseudomonas aeruginosa clinical isolate F1757 | 256 | > 1020 | ≤ 1 | 64 | 64 | 64 | 64 | > 1020
11 | Pseudomonas aeruginosa clinical isolate F1758 | 256 | 1020 | 16 | 256 | 256 | 256 | 64 | 1020
12 | Pseudomonas aeruginosa clinical isolate F1759 | 256 | 64 | ≤ 1 | 256 | 256 | 4 | 64 | 256
13 | Pseudomonas aeruginosa clinical isolate F1764 | 64 | 1020 | 16 | 64 | 64 | 64 | 16 | > 1020
14 | Pseudomonas aeruginosa clinical isolate F1775 | 256 | 16 | ≤ 1 | 256 | 256 | ≤ 1 | 16 | 1020
15 | Pseudomonas aeruginosa clinical isolate F1800 | 1020 | 256 | ≤ 1 | 256 | 1020 | ≤ 1 | 16 | 1020
16 | Pseudomonas aeruginosa clinical isolate F1823 | 1020 | > 1020 | 4 | 256 | 256 | 64 | 64 | > 1020
17 | Pseudomonas aeruginosa clinical isolate F1856 | 64 | 1020 | 256 | 16 | 64 | 1020 | 4 | 1020
18 | Pseudomonas aeruginosa clinical isolate F1862 | 256 | 256 | 64 | 256 | 256 | 256 | 256 | 256
